Test results from US5409933A, “Quinoline derivatives and processes for preparing the same” (priority 1993, dated 1995).
Structures can show the parent of a compound that is named as a salt. Where two headings read alike, the source gives them in different places.

What was measured:
Assay in all cases: In Vitro Anti-Bacterial Activity Test (MIC, agar dilution)
Format in all cases: cell-based
[1] = tested on: Enterobacter cloacae 1321E; conditions: Enterobacter cloacae 1321E; Muller-Hinton agar, 37° C., 18 hours; read-out: MIC
Experimental: (§1) The above in vitro antibacterial activity test was carried out in accordance with the agar culture medium dilution method (Hoechst 345) by using Muller-Hinton agar medium to determine the minimum inhibitory concentration (MIC).
(§2) The strains having 10^7 C.F.U./ml were inoculated on the culture medium, and the growth of the strains was observed after incubating them at 37° C. for 18 hours, in which ciprofloxacin was used as a control antibacterial agent. In this test, twenty typical strains were used.

Enterobacter cloacae P99 = conditions: Enterobacter cloacae, P99, 18 h
Experimental: as §1, §2

Escherichia coli 078 = tested on: Escherichia coli 078
Experimental: as §1, §2

Escherichia coli 1507E = conditions: Escherichia coli, 1507E, 18 h, Muller-Hinton agar, 37° C.
Experimental: as §1, §2

Escherichia coli DC0 = conditions: Muller-Hinton agar, 37° C., 18 hours, read-out: MIC
Experimental: as §1, §2

Escherichia coli DC2 = tested on: Escherichia coli DC2
Experimental: as §1, §2

Escherichia coli TEM = conditions: Escherichia coli, 18 h, Muller-Hinton agar, 37° C.
Experimental: as §1, §2

[2] = tested on: Klebsiella aerogenes 1522E; conditions: Klebsiella aerogenes, 1522E, 18 h
Experimental: as §1, §2

Klebsiella oxytoca 1082E = conditions: Klebsiella oxytoca 1082E; Muller-Hinton agar, 37° C., 18 hours; read-out: MIC
Experimental: as §1, §2

[3] = tested on: Pseudomonas aeruginosa 1592E; conditions: Muller-Hinton agar, 37° C., 18 hours, read-out: MIC
Experimental: as §1, §2

[4] = tested on: Pseudomonas aeruginosa 1771M; conditions: Pseudomonas aeruginosa, 1771M, 18 h, Muller-Hinton agar, 37° C.
Experimental: as §1, §2

[5] = tested on: Pseudomonas aeruginosa 1771; conditions: Pseudomonas aeruginosa 1771; Muller-Hinton agar, 37° C., 18 hours; read-out: MIC
Experimental: as §1, §2

[6] = tested on: Pseudomonas aeruginosa 9027; conditions: Muller-Hinton agar, 37° C., 18 hours, read-out: MIC
Experimental: as §1, §2

Salmonella typhimurium = conditions: Salmonella enterica; Salmonella typhimurium; Muller-Hinton agar, 37° C., 18 hours; read-out: MIC
Experimental: as §1, §2

[7] = tested on: Staphylococcus aureus 285; conditions: Staphylococcus aureus, 285, 18 h, Staphylococcus aureus 285; Muller-Hinton agar, 37° C., 18 hours; read-out: MIC
Experimental: as §1, §2

[8] = tested on: Staphylococcus aureus 503; conditions: Staphylococcus aureus 503; Muller-Hinton agar, 37° C., 18 hours; read-out: MIC
Experimental: as §1, §2

[9] = tested on: Staphylococcus aureus SG511; conditions: Staphylococcus aureus SG511; Muller-Hinton agar, 37° C., 18 hours; read-out: MIC
Experimental: as §1, §2

[10] = tested on: Streptococcus faecium MD8b; conditions: Enterococcus faecium, Muller-Hinton agar, 37° C., 18 hours, read-out: MIC
Experimental: as §1, §2

[11] = tested on: Streptococcus pyogenes 308A; conditions: Muller-Hinton agar, 37° C., 18 hours, read-out: MIC
Experimental: as §1, §2

[12] = tested on: Streptococcus pyogenes 77A
Experimental: as §1, §2

[13] = Klebsiella aerogenes 1522E, Muller-Hinton agar, 37° C., 18 hours, read-out: MIC
[14] = Streptococcus pyogenes 77A, Muller-Hinton agar, 37° C., 18 hours, read-out: MIC
[15] = Escherichia coli 078, Muller-Hinton agar, 37° C., 18 hours, read-out: MIC

SMILES | MIC [1] [µg/mL] | MIC (Enterobacter cloacae P99) [µg/mL] | MIC (Escherichia coli 078; Escherichia coli, 078, 18 h) [µg/mL] | MIC (Escherichia coli 1507E) [µg/mL] | MIC (Escherichia coli DC0) [µg/mL] | MIC (Escherichia coli DC2; Escherichia coli, DC2, 18 h) [µg/mL] | MIC (Escherichia coli TEM) [µg/mL] | MIC [2, 13] [µg/mL] | MIC (Klebsiella oxytoca 1082E) [µg/mL] | MIC [3] [µg/mL] | MIC [4] [µg/mL] | MIC [5] [µg/mL] | MIC [6] [µg/mL] | MIC (Salmonella typhimurium) [µg/mL] | MIC [7] [µg/mL] | MIC [8] [µg/mL] | MIC [9] [µg/mL] | MIC [10] [µg/mL] | MIC [11] [µg/mL] | MIC [12, 14] [µg/mL] | further results
CCOC(=O)C(C(=O)OCC)C(=O)c1cn(C2CC2)c2c(Cl)c(N3CC[C@@H](NC)C3)c(F)cc2c1=O [Example 55, 1-cyclopropyl-6-fluoro-8-chloro-7-(3-3R-methylaminopyrrolidin-1-yl)-3-(2,2-diethoxycarbonylacetyl)-1,4-dihydro-4-oxoquinoline hydrochloride] | 0.049 | 0.025 | 0.013 | 0.025 | 0.391 | 0.098 | 0.025 | 0.049 | 0.025 | 0.391 | 0.195 | 0.391 | 1.56 | 0.013 | 0.195 | 0.195 | 0.098 | 0.391 | 1.56 | 0.391 | –
CCOC(=O)C(C(=O)OCC)C(=O)c1cn(C2CC2)c2c(Cl)c(N3CC[C@H](NC)C3)c(F)cc2c1=O [Example 56, 1-cyclopropyl-6-fluoro-8-chloro-7-(3-3S-methylaminopyrrolidin-1-yl)-3-(2,2-diethoxycarbonylacetyl)-1,4-dihydro-4-oxoquinoline hydrochloride] | 0.049 | 0.013 | 0.007 | 0.013 | 0.195 | 0.049 | 0.013 | 0.049 | 0.013 | 0.391 | 0.098 | 0.391 | 0.781 | 0.007 | 0.098 | 0.098 | 0.049 | 0.195 | 0.781 | 0.195 | –
COc1c(N2CCC(N)C2)c(F)cc2c(=O)c(C(=O)C[N+](=O)[O-])cn(C3CC3)c12 (centres unmarked) [Example 49, 1-cyclopropyl-6-fluoro-8-methoxy-7-(3-aminopyrrolidin-1-yl)-3-(2-nitroacetyl)-1,4-dihydro-4-oxoquinoline hydrochloride] | 0.025 | 0.049 | 0.049 | 0.098 | 0.391 | 0.098 | 0.049 | 0.098 | 0.013 | 1.56 | 0.781 | 3.12 | 3.12 | 0.049 | 0.098 | 0.098 | 0.098 | 0.195 | 0.391 | 0.098 | –
CCOC(=O)C(C(=O)OCC)C(=O)c1cn(C2CC2)c2c(Cl)c(N3CC=C(CNC)C3)c(F)cc2c1=O [Example 28, 1-cyclopropyl-6-fluoro-8-chloro-7-(3-methylaminomethyl-2,5-dihydropyrrol-1-yl)-3-(2,2-diethoxycarbonylacetyl)-1,4-dihydro-4-oxoquinoline hydrochloride] | < 0.002 | < 0.002 | – | 0.013 | 0.195 | 0.049 | 0.013 | 0.013 | 0.007 | 0.391 | 0.195 | 0.781 | 0.781 | 0.013 | 0.007 | < 0.002 | 0.004 | 0.049 | 0.098 | 0.049 | MIC (Escherichia coli 078; [15]): < 0.002 µg/mL
CN[C@H]1CCN(c2c(F)cc3c(=O)c(C(=O)C[N+](=O)[O-])cn(C4CC4)c3c2OC)C1 [Example 65, 1-cyclopropyl-6-fluoro-8-methoxy-7-(3-3S-methylaminopyrrolidin-1-yl)-3-(2-nitroacetyl)-1,4-dihydro-4-oxoquinoline hydrochloride] | 0.013 | 0.013 | 0.049 | 0.195 | 0.781 | 0.195 | 0.049 | 0.049 | 0.049 | 1.56 | 1.56 | 1.56 | 1.56 | 0.781 | 0.049 | 0.098 | 0.049 | 0.781 | 0.781 | – | MIC ([12]; Streptococcus pyogenes, 77A, 18 h): 0.781 µg/mL
CCOC(=O)CC(=O)c1cn(C2CC2)c2cc(N3CCNCC3)c(F)cc2c1=O [Example 19, 1-cyclopropyl-6-fluoro-7-(piperazin-1-yl)-3-(2-ethoxycarbonylacetyl)-1,4-dihydro-4-oxoquinoline hydrochloride] | 0.013 | 0.013 | – | 0.013 | 0.391 | 0.391 | 0.195 | 0.049 | 0.013 | 1.56 | 1.56 | 0.781 | 0.781 | 0.391 | 1.56 | 0.781 | 0.391 | 0.781 | 3.12 | 1.56 | MIC (Escherichia coli 078; [15]): 0.004 µg/mL
CCOC(=O)C(C#N)C(=O)c1cn(C2CC2)c2c(Cl)c(N3CC=C(CNC)C3)c(F)cc2c1=O (centres unmarked) [Example 40, 1-cyclopropyl-6-fluoro-8-chloro-7-(3-methylaminomethyl-2,5-dihydropyrrol-1-yl)-3-(2-cyano-2-ethoxycarbonylacetyl)-1,4-dihydro-4-oxoquinoline hydrochloride] | 0.049 | 0.391 | 0.098 | 0.781 | 6.25 | – | 0.391 | – | 0.049 | 6.25 | 3.12 | 6.25 | 12.5 | 0.195 | 3.12 | 1.56 | 1.56 | 12.5 | 25 | 12.5 | MIC (Escherichia coli DC2; Escherichia coli DC2, Muller-Hinton agar, 37° C., 18 hours, read-out: MIC): 3.12 µg/mL; MIC [2]: 0.391 µg/mL
